Experimental data published in US8492561B2, “Azetidine derivatives as sphingosine 1-phosphate (S1P) receptor modulators” (Allergan, Inc., priority 2010, dated 2013).

target: T1, human S1P1 receptor (Homo sapiens, UniProt P21453); assay: GTP γ35S binding assay for S1P1 activity; type: biochemical; settings: membranes of cells stably expressing the S1P1 receptor, agonist potency
T1 construct: expressed in transfected cells; membranes from cells stably expressing the S1P1 receptor
Experimental: Compounds were synthesized and tested for S1P1 activity using the GTP γ^35S binding assay. These compounds may be assessed for their ability to activate or block activation of the human S1P1 receptor in cells stably expressing the S1P1 receptor.
GTP γ^35S binding was measured in the medium containing (mM) HEPES 25, pH 7.4, MgCl2 10, NaCl 100, dithiothreitol 0.5, digitonin 0.003%, 0.2 nM GTP γ^35S, and 5 μg membrane protein in a volume of 150 μl. Test compounds were included in the concentration range from 0.08 to 5,000 nM unless indicated otherwise. Membranes were incubated with 100 μM 5′-adenylylimmidodiphosphate for 30 min, and subsequently with 10 μM GDP for 10 min on ice. Drug solutions and membrane were mixed, and then reactions were initiated by adding GTP γ^35S and continued for 30 min at 25° C. Reaction mixtures were filtered over Whatman GF/B filters under vacuum, and washed three times with 3 mL of ice-cold buffer (HEPES 25, pH7.4, MgCl2 10 and NaCl 100). Filters were dried and mixed with scintillant, and counted for ^35S activity using a β-counter. Agonist-induced GTP γ^35S binding was obtained by subtracting that in the absence of agonist. Binding data were analyzed using a non-linear regression method. In case of antagonist assay, the reaction mixture contained 10 nM S1P in the presence of test antagonist at concentrations ranging from 0.08 to 5000 nM.

T1 sequence (P21453 whole entry): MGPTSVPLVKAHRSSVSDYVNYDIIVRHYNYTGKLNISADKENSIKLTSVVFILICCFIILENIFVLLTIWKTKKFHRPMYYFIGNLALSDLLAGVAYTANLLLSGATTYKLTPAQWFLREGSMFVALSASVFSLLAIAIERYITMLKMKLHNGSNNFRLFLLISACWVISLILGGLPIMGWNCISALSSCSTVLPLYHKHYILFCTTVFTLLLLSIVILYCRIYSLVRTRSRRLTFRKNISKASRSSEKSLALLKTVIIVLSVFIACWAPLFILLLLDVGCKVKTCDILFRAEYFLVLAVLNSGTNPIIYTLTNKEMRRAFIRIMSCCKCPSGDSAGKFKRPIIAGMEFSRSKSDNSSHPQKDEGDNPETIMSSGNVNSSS

| SMILES | EC50 |
| --- | --- |
| Cc1ccc(CC(C#Cc2ccc(CN3CC(C(=O)O)C3)cc2)c2cccc(Cl)c2)cc1C (stereo not shown) [Compound 1, 1-{4-[3-(3-chlorophenyl)-4-(3,4-dimethylphenyl)but-1-yn-1 yl]benzyl}azetidine-3-carboxylic acid] | 16 nM |
| Cc1ccc(CC(C#Cc2ccc(CN3CC(C(=O)O)C3)cc2C)c2cccc(Cl)c2)cc1C (stereo not shown) [Compound 2, 1-{4-[3-(3-Chloro-phenyl)-4-(3,4-dimethyl-phenyl)-but-1-ynyl]-3-methyl-benzyl}-azetidine-3-carboxylic acid] | 607 nM |
| COc1cccc(C(C#Cc2ccc(CN3CC(C(=O)O)C3)cc2)Cc2ccc(C)c(C)c2)c1 (stereo not shown) [Compound 3, 1-{4-[4-(3,4-dimethylphenyl)-3-(3-methoxyphenyl)but-1-yn-1-yl]benzyl}azetidine-3-carboxylic acid] | 42.3 nM |
| Cc1ccc(CC(C#Cc2ccc(CN3CC(C(=O)O)C3)cc2)c2ccc(Cl)cc2)cc1C (stereo not shown) [Compound 4, 1-{4-[3-(4-chlorophenyl)-4-(3,4-dimethylphenyl)but-1-yn-1-yl]benzyl}azetidine-3-carboxylic acid] | 128 nM |

Next, values leading:

| EC50 | SMILES |
| --- | --- |
| 310 nM | O=C(O)C1CN(Cc2ccc(C#CC(Cc3ccc(Cl)c(Cl)c3)c3cccc(F)c3)cc2)C1 (stereo not shown) [Compound 5, 1-{4-[4-(3,4-Dichloro-phenyl)-3-(3-fluoro-phenyl)-but-1-ynyl]-benzyl}-azetidine-3-carboxylic acid] |
| 58.7 nM | Cc1ccc(CC(/C=C/c2ccc(CN3CC(C(=O)O)C3)cc2)c2cccc(F)c2)cc1C (stereo not shown) [Compound 6, 1-{4-[(1E)-4-(3,4-dimethylphenyl)-3-(3-fluorophenyl)but-1-en-1-yl]benzyl}azetidine-3-carboxylic acid] |
| 91.9 nM | Cc1cccc(C(C#Cc2ccc(CN3CC(C(=O)O)C3)cc2)Cc2ccc(C)c(C)c2)c1 (stereo not shown) [Compound 7, 1-{4-[4-(3,4-dimethylphenyl)-3-(3-methylphenyl)but-1-yn-1-yl]benzyl}azetidine-3-carboxylic acid] |
